# From publication PMC7156458, “Synthetic biology based construction of biological activity-related library of fungal decalin-containing diterpenoid pyrones” (Nature Communications, 2020)
# Biological target: Aβ42 (Homo sapiens, UniProt P05067)
# Experiment: Th-T (thioflavin-T) assay of Aβ42 aggregation
# Format: biochemical
# Details: for Th-T assay plate reading, mean of three wells (Supplementary Fig. 47): source data, Ab alone and No Ab as controls
# Sequence of Aβ42 (P05067 672-713): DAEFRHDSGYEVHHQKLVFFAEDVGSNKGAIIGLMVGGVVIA
smiles,measurement,setting,value
"C=C1CC[C@@H]2[C@](C)(CC[C@H]3O[C@H](C=C(C)C)C[C@@]23C)[C@@H]1Cc1c(O)c(C)c(C)oc1=O [Compound 10, higginsianin A]","Th-T fluorescence, mean of three wells","Aβ42 aggregation time course, reading M117",3.027
same,"Th-T fluorescence, mean of three wells","Aβ42 aggregation time course, reading M118",3.005
same,"Th-T fluorescence, mean of three wells","Aβ42 aggregation time course, reading M119",3.036
same,"Th-T fluorescence, mean of three wells","Aβ42 aggregation time course, reading M120",3.024
same,"Th-T fluorescence, mean of three wells","Aβ42 aggregation time course, reading M121",3.009
same,"Th-T fluorescence, mean of three wells","Aβ42 aggregation time course, reading M122",2.9814
same,"Th-T fluorescence, mean of three wells","Aβ42 aggregation time course, reading M123",3.007
same,"Th-T fluorescence, mean of three wells","Aβ42 aggregation time course, reading M124",3.01
same,"Th-T fluorescence, mean of three wells","Aβ42 aggregation time course, reading M125",2.994
same,"Th-T fluorescence, mean of three wells","Aβ42 aggregation time course, reading M126",2.985
same,"Th-T fluorescence, mean of three wells","Aβ42 aggregation time course, reading M127",3.018
same,"Th-T fluorescence, mean of three wells","Aβ42 aggregation time course, reading M128",2.986
same,"Th-T fluorescence, mean of three wells","Aβ42 aggregation time course, reading M129",2.997
same,"Th-T fluorescence, mean of three wells","Aβ42 aggregation time course, reading M130",3.004
same,"Th-T fluorescence, mean of three wells","Aβ42 aggregation time course, reading M131",2.988
same,"Th-T fluorescence, mean of three wells","Aβ42 aggregation time course, reading M132",2.974
same,"Th-T fluorescence, mean of three wells","Aβ42 aggregation time course, reading M133",2.995
same,"Th-T fluorescence, mean of three wells","Aβ42 aggregation time course, reading M134",2.998
same,"Th-T fluorescence, mean of three wells","Aβ42 aggregation time course, reading M135",3.001
same,"Th-T fluorescence, mean of three wells","Aβ42 aggregation time course, reading M136",2.985
same,"Th-T fluorescence, mean of three wells","Supplementary Fig. 47, reading M137",2.995
same,"Th-T fluorescence, mean of three wells","Supplementary Fig. 47, reading M138",2.975
same,"Th-T fluorescence, mean of three wells","Supplementary Fig. 47, reading M139",2.9735
same,"Th-T fluorescence, mean of three wells","Supplementary Fig. 47, reading M140",2.981
same,"Th-T fluorescence, mean of three wells","Supplementary Fig. 47, reading M141",2.969
same,"Th-T fluorescence, mean of three wells","Supplementary Fig. 47, reading M142",2.937
same,"Th-T fluorescence, mean of three wells","Supplementary Fig. 47, reading M143",3.01
same,"Th-T fluorescence, mean of three wells","Supplementary Fig. 47, reading M144",2.949
same,"Th-T fluorescence, mean of three wells","Supplementary Fig. 47, reading M145",2.953
same,"Th-T fluorescence, mean of three wells","Supplementary Fig. 47 source data, measurement M37 of time course",3.026
same,"Th-T fluorescence, mean of three wells","Supplementary Fig. 47 source data, measurement M38 of time course",3.058
same,"Th-T fluorescence, mean of three wells","Supplementary Fig. 47 source data, measurement M39 of time course",3.066
same,"Th-T fluorescence, mean of three wells","Supplementary Fig. 47 source data, measurement M40 of time course",3.0688
same,"Th-T fluorescence, mean of three wells","Supplementary Fig. 47 source data, measurement M41 of time course",3.079
same,"Th-T fluorescence, mean of three wells","Supplementary Fig. 47 source data, measurement M42 of time course",3.094
same,"Th-T fluorescence, mean of three wells","Supplementary Fig. 47 source data, measurement M43 of time course",3.089
same,"Th-T fluorescence, mean of three wells","Supplementary Fig. 47 source data, measurement M44 of time course",3.087
same,"Th-T fluorescence, mean of three wells","Supplementary Fig. 47 source data, measurement M45 of time course",3.107
same,"Th-T fluorescence, mean of three wells","Supplementary Fig. 47 source data, measurement M46 of time course",3.104
same,"Th-T fluorescence, mean of three wells","Supplementary Fig. 47 source data, measurement M47 of time course",3.097
same,"Th-T fluorescence, mean of three wells","Supplementary Fig. 47 source data, measurement M48 of time course",3.099
same,"Th-T fluorescence, mean of three wells","Supplementary Fig. 47 source data, measurement M49 of time course",3.124
same,"Th-T fluorescence, mean of three wells","Supplementary Fig. 47 source data, measurement M50 of time course",3.143
same,"Th-T fluorescence, mean of three wells","Supplementary Fig. 47 source data, measurement M51 of time course",3.109
same,"Th-T fluorescence, mean of three wells","Supplementary Fig. 47 source data, measurement M52 of time course",3.12
same,"Th-T fluorescence, mean of three wells","Supplementary Fig. 47 source data, measurement M53 of time course",3.131
same,"Th-T fluorescence, mean of three wells","Supplementary Fig. 47 source data, measurement M54 of time course",3.122
same,"Th-T fluorescence, mean of three wells","Supplementary Fig. 47 source data, measurement M55 of time course",3.1161
same,"Th-T fluorescence, mean of three wells","Supplementary Fig. 47 source data, measurement M56 of time course",3.112
same,"Th-T assay plate reading, mean of three wells (Supplementary Fig. 47)",measurement M1,0.2982
same,"Th-T assay plate reading, mean of three wells (Supplementary Fig. 47)",measurement M2,0.2966
same,"Th-T assay plate reading, mean of three wells (Supplementary Fig. 47)",measurement M3,0.3112
same,"Th-T assay plate reading, mean of three wells (Supplementary Fig. 47)",measurement M4,0.3288
same,"Th-T assay plate reading, mean of three wells (Supplementary Fig. 47)",measurement M5,0.3791
same,"Th-T assay plate reading, mean of three wells (Supplementary Fig. 47)",measurement M6,0.4184
same,"Th-T assay plate reading, mean of three wells (Supplementary Fig. 47)",measurement M7,0.4946
same,"Th-T assay plate reading, mean of three wells (Supplementary Fig. 47)",measurement M8,0.5732
same,"Th-T assay plate reading, mean of three wells (Supplementary Fig. 47)",measurement M9,0.6554
same,"Th-T assay plate reading, mean of three wells (Supplementary Fig. 47)",measurement M10,0.6998
same,"Th-T assay plate reading, mean of three wells (Supplementary Fig. 47)",measurement M11,0.7388
same,"Th-T assay plate reading, mean of three wells (Supplementary Fig. 47)",measurement M12,0.7839
same,"Th-T assay plate reading, mean of three wells (Supplementary Fig. 47)",measurement M13,0.8524
same,"Th-T assay plate reading, mean of three wells (Supplementary Fig. 47)",measurement M14,1.025
same,"Th-T assay plate reading, mean of three wells (Supplementary Fig. 47)",measurement M15,1.367
same,"Th-T assay plate reading, mean of three wells (Supplementary Fig. 47)",measurement M16,1.777
same,"Th-T fluorescence, mean of three wells","reading M17, Supplementary Fig. 47 source data",2.114
same,"Th-T fluorescence, mean of three wells","reading M18, Supplementary Fig. 47 source data",2.387
same,"Th-T fluorescence, mean of three wells","reading M19, Supplementary Fig. 47 source data",2.598
same,"Th-T fluorescence, mean of three wells","reading M20, Supplementary Fig. 47 source data",2.677
same,"Th-T fluorescence, mean of three wells","reading M21, Supplementary Fig. 47 source data",2.685
same,"Th-T fluorescence, mean of three wells","reading M22, Supplementary Fig. 47 source data",2.669
same,"Th-T fluorescence, mean of three wells","reading M23, Supplementary Fig. 47 source data",2.723
same,"Th-T fluorescence, mean of three wells","reading M24, Supplementary Fig. 47 source data",2.7479
same,"Th-T fluorescence, mean of three wells","reading M25, Supplementary Fig. 47 source data",2.777
same,"Th-T fluorescence, mean of three wells","reading M26, Supplementary Fig. 47 source data",2.823
same,"Th-T fluorescence, mean of three wells","reading M27, Supplementary Fig. 47 source data",2.858
same,"Th-T fluorescence, mean of three wells","reading M28, Supplementary Fig. 47 source data",2.868
same,"Th-T fluorescence, mean of three wells","reading M29, Supplementary Fig. 47 source data",2.914
same,"Th-T fluorescence, mean of three wells","reading M30, Supplementary Fig. 47 source data",2.924
same,"Th-T fluorescence, mean of three wells","reading M31, Supplementary Fig. 47 source data",2.961
same,"Th-T fluorescence, mean of three wells","reading M32, Supplementary Fig. 47 source data",2.958
same,"Th-T fluorescence, mean of three wells","reading M33, Supplementary Fig. 47 source data",2.966
same,"Th-T fluorescence, mean of three wells","reading M34, Supplementary Fig. 47 source data",3.0036
same,"Th-T fluorescence, mean of three wells","reading M35, Supplementary Fig. 47 source data",3.001
same,"Th-T fluorescence, mean of three wells","reading M36, Supplementary Fig. 47 source data",3.031
same,"Th-T fluorescence, mean of three wells","time course, reading M57",3.145
same,"Th-T fluorescence, mean of three wells","time course, reading M58",3.098
same,"Th-T fluorescence, mean of three wells","time course, reading M59",3.0965
same,"Th-T fluorescence, mean of three wells","time course, reading M60",3.12
same,"Th-T fluorescence, mean of three wells","time course, reading M61",3.114
same,"Th-T fluorescence, mean of three wells","time course, reading M62",3.124
same,"Th-T fluorescence, mean of three wells","time course, reading M63",3.121
same,"Th-T fluorescence, mean of three wells","time course, reading M64",3.089
same,"Th-T fluorescence, mean of three wells","time course, reading M65",3.1417
same,"Th-T fluorescence, mean of three wells","time course, reading M66",3.124
same,"Th-T fluorescence, mean of three wells","time course, reading M67",3.125
same,"Th-T fluorescence, mean of three wells","time-course reading M97, Supplementary Fig. 47 source data",3.037
same,"Th-T fluorescence, mean of three wells","time-course reading M98, Supplementary Fig. 47 source data",3.037
same,"Th-T fluorescence, mean of three wells","time-course reading M99, Supplementary Fig. 47 source data",3.05
same,"Th-T fluorescence, mean of three wells","time-course reading M100, Supplementary Fig. 47 source data",3.074
same,"Th-T fluorescence, mean of three wells","time-course reading M101, Supplementary Fig. 47 source data",3.025
same,"Th-T fluorescence, mean of three wells","time-course reading M102, Supplementary Fig. 47 source data",3.036
same,"Th-T fluorescence, mean of three wells","time-course reading M103, Supplementary Fig. 47 source data",3.034
same,"Th-T fluorescence, mean of three wells","time-course reading M104, Supplementary Fig. 47 source data",3.0181
same,"Th-T fluorescence, mean of three wells","time-course reading M105, Supplementary Fig. 47 source data",3.041
same,"Th-T fluorescence, mean of three wells","time-course reading M106, Supplementary Fig. 47 source data",3.028
same,"Th-T fluorescence, mean of three wells","time-course reading M107, Supplementary Fig. 47 source data",3.025
same,"Th-T fluorescence, mean of three wells","time-course reading M108, Supplementary Fig. 47 source data",3.028
same,"Th-T fluorescence, mean of three wells","time-course reading M109, Supplementary Fig. 47 source data",3.032
same,"Th-T fluorescence, mean of three wells","time-course reading M110, Supplementary Fig. 47 source data",3.022
same,"Th-T fluorescence, mean of three wells","time-course reading M111, Supplementary Fig. 47 source data",3.062
same,"Th-T fluorescence, mean of three wells","time-course reading M112, Supplementary Fig. 47 source data",3.021
same,"Th-T fluorescence, mean of three wells","time-course reading M113, Supplementary Fig. 47 source data",3.021
same,"Th-T fluorescence, mean of three wells","time-course reading M114, Supplementary Fig. 47 source data",3.0544
same,"Th-T fluorescence, mean of three wells","time-course reading M115, Supplementary Fig. 47 source data",3.028
same,"Th-T fluorescence, mean of three wells","time-course reading M116, Supplementary Fig. 47 source data",3.017
